According to publication PMC12748989 (Nature Communications, 2025):

Experiments:
PBMC = settings: 12.5 µM

| Compound | Average (percentage cell inhibition), Mastoparan PBMC (PBMC) [%] | Average (percentage cell inhibition), Dmastoparan MDA-MB231 12.5uM (MDA-MB-231 cells) [%] |
| --- | --- | --- |
| CC[C@H](C)[C@H](N)C(=O)N[C@@H](CC(N)=O)C(=O)N[C@@H](CC(C)C)C(=O)N[C@@H](CCCCN)C(=O)N[C@@H](C)C(=O)N[C@@H](CC(C)C)C(=O)N[C@@H](C)C(=O)N[C@@H](C)C(=O)N[C@H](C(=O)N[C@@H](C)C(=O)N[C@@H](CCCCN)C(=O)N[C@@H](CCCCN)C(=O)N[C@H](C(=O)N[C@@H](CC(C)C)C(N)=O)[C@@H](C)CC)[C@@H](C)CC [I9] | 12.8506 | 25.9927 |
| CC[C@H](C)[C@H](N)C(=O)N[C@@H](CC(N)=O)C(=O)N[C@@H](CC(C)C)C(=O)N[C@@H](CCCCN)C(=O)N[C@@H](C)C(=O)N[C@@H](CC(C)C)C(=O)N[C@@H](C)C(=O)N[C@@H](C)C(=O)N[C@@H](CC(C)C)C(=O)N[C@H](C(=O)N[C@@H](CCCCN)C(=O)N[C@@H](CCCCN)C(=O)N[C@H](C(=O)N[C@@H](CC(C)C)C(N)=O)[C@@H](C)CC)[C@@H](C)CC [I10] | 25.836 | 54.8759 |
| CC[C@H](C)[C@H](N)C(=O)N[C@@H](CC(N)=O)C(=O)N[C@@H](CC(C)C)C(=O)N[C@@H](CCCCN)C(=O)N[C@@H](C)C(=O)N[C@@H](CC(C)C)C(=O)N[C@@H](C)C(=O)N[C@@H](C)C(=O)N[C@@H](CC(C)C)C(=O)N[C@@H](C)C(=O)N[C@H](C(=O)N[C@@H](CCCCN)C(=O)N[C@H](C(=O)N[C@@H](CC(C)C)C(N)=O)[C@@H](C)CC)[C@@H](C)CC [I11] | 5.295 | 36.5354 |
| CC[C@H](C)[C@H](N)C(=O)N[C@@H](CC(N)=O)C(=O)N[C@@H](CC(C)C)C(=O)N[C@@H](CCCCN)C(=O)N[C@@H](C)C(=O)N[C@@H](CC(C)C)C(=O)N[C@@H](C)C(=O)N[C@@H](C)C(=O)N[C@@H](CC(C)C)C(=O)N[C@@H](C)C(=O)N[C@@H](CCCCN)C(=O)N[C@H](C(=O)N[C@H](C(=O)N[C@@H](CC(C)C)C(N)=O)[C@@H](C)CC)[C@@H](C)CC [I12] | 20.8332 | 44.3343 |
| CC[C@H](C)[C@H](N)C(=O)N[C@@H](CC(N)=O)C(=O)N[C@@H](CC(C)C)C(=O)N[C@@H](CCCCN)C(=O)N[C@@H](C)C(=O)N[C@@H](CC(C)C)C(=O)N[C@@H](C)C(=O)N[C@@H](C)C(=O)N[C@@H](CC(C)C)C(=O)N[C@@H](C)C(=O)N[C@@H](CCCCN)C(=O)N[C@@H](CCCCN)C(=O)N[C@H](C(=O)N[C@H](C(N)=O)[C@@H](C)CC)[C@@H](C)CC [I14] | 14.5337 | 33.7751 |
| CC[C@H](C)[C@H](NC(=O)[C@H](CCCCN)NC(=O)[C@H](CCCCN)NC(=O)[C@H](C)NC(=O)[C@H](CC(C)C)NC(=O)[C@H](C)NC(=O)[C@H](C)NC(=O)[C@H](CC(C)C)NC(=O)[C@H](C)NC(=O)[C@H](CCCCN)NC(=O)[C@H](CC(C)C)NC(=O)[C@H](CC(N)=O)NC(=O)[C@@H](N)CCCCN)C(=O)N[C@@H](CC(C)C)C(N)=O [K1] | 1.227 | 35.9182 |
| CC[C@H](C)[C@H](N)C(=O)N[C@@H](CCCCN)C(=O)N[C@@H](CC(C)C)C(=O)N[C@@H](CCCCN)C(=O)N[C@@H](C)C(=O)N[C@@H](CC(C)C)C(=O)N[C@@H](C)C(=O)N[C@@H](C)C(=O)N[C@@H](CC(C)C)C(=O)N[C@@H](C)C(=O)N[C@@H](CCCCN)C(=O)N[C@@H](CCCCN)C(=O)N[C@H](C(=O)N[C@@H](CC(C)C)C(N)=O)[C@@H](C)CC [K2] | 14.3506 | 44.3131 |
| CC[C@H](C)[C@H](N)C(=O)N[C@@H](CC(N)=O)C(=O)N[C@@H](CCCCN)C(=O)N[C@@H](CCCCN)C(=O)N[C@@H](C)C(=O)N[C@@H](CC(C)C)C(=O)N[C@@H](C)C(=O)N[C@@H](C)C(=O)N[C@@H](CC(C)C)C(=O)N[C@@H](C)C(=O)N[C@@H](CCCCN)C(=O)N[C@@H](CCCCN)C(=O)N[C@H](C(=O)N[C@@H](CC(C)C)C(N)=O)[C@@H](C)CC [K3] | -9.841 | 21.542 |
| CC[C@H](C)[C@H](N)C(=O)N[C@@H](CC(N)=O)C(=O)N[C@@H](CC(C)C)C(=O)N[C@@H](CCCCN)C(=O)N[C@@H](CCCCN)C(=O)N[C@@H](CC(C)C)C(=O)N[C@@H](C)C(=O)N[C@@H](C)C(=O)N[C@@H](CC(C)C)C(=O)N[C@@H](C)C(=O)N[C@@H](CCCCN)C(=O)N[C@@H](CCCCN)C(=O)N[C@H](C(=O)N[C@@H](CC(C)C)C(N)=O)[C@@H](C)CC [K5] | 10.3023 | 39.1552 |
| CC[C@H](C)[C@H](N)C(=O)N[C@@H](CC(N)=O)C(=O)N[C@@H](CC(C)C)C(=O)N[C@@H](CCCCN)C(=O)N[C@@H](C)C(=O)N[C@@H](CCCCN)C(=O)N[C@@H](C)C(=O)N[C@@H](C)C(=O)N[C@@H](CC(C)C)C(=O)N[C@@H](C)C(=O)N[C@@H](CCCCN)C(=O)N[C@@H](CCCCN)C(=O)N[C@H](C(=O)N[C@@H](CC(C)C)C(N)=O)[C@@H](C)CC [K6] | -1.883 | 7.2133 |
| CC[C@H](C)[C@H](N)C(=O)N[C@@H](CC(N)=O)C(=O)N[C@@H](CC(C)C)C(=O)N[C@@H](CCCCN)C(=O)N[C@@H](C)C(=O)N[C@@H](CC(C)C)C(=O)N[C@@H](CCCCN)C(=O)N[C@@H](C)C(=O)N[C@@H](CC(C)C)C(=O)N[C@@H](C)C(=O)N[C@@H](CCCCN)C(=O)N[C@@H](CCCCN)C(=O)N[C@H](C(=O)N[C@@H](CC(C)C)C(N)=O)[C@@H](C)CC [K7] | 5.806 | 38.2404 |
| CC[C@H](C)[C@H](N)C(=O)N[C@@H](CC(N)=O)C(=O)N[C@@H](CC(C)C)C(=O)N[C@@H](CCCCN)C(=O)N[C@@H](C)C(=O)N[C@@H](CC(C)C)C(=O)N[C@@H](C)C(=O)N[C@@H](CCCCN)C(=O)N[C@@H](CC(C)C)C(=O)N[C@@H](C)C(=O)N[C@@H](CCCCN)C(=O)N[C@@H](CCCCN)C(=O)N[C@H](C(=O)N[C@@H](CC(C)C)C(N)=O)[C@@H](C)CC [K8] | 13.8127 | 44.6441 |
| CC[C@H](C)[C@H](N)C(=O)N[C@@H](CC(N)=O)C(=O)N[C@@H](CC(C)C)C(=O)N[C@@H](CCCCN)C(=O)N[C@@H](C)C(=O)N[C@@H](CC(C)C)C(=O)N[C@@H](C)C(=O)N[C@@H](C)C(=O)N[C@@H](CCCCN)C(=O)N[C@@H](C)C(=O)N[C@@H](CCCCN)C(=O)N[C@@H](CCCCN)C(=O)N[C@H](C(=O)N[C@@H](CC(C)C)C(N)=O)[C@@H](C)CC [K9] | -2.726 | 18.9586 |
| CC[C@H](C)[C@H](N)C(=O)N[C@@H](CC(N)=O)C(=O)N[C@@H](CC(C)C)C(=O)N[C@@H](CCCCN)C(=O)N[C@@H](C)C(=O)N[C@@H](CC(C)C)C(=O)N[C@@H](C)C(=O)N[C@@H](C)C(=O)N[C@@H](CC(C)C)C(=O)N[C@@H](CCCCN)C(=O)N[C@@H](CCCCN)C(=O)N[C@@H](CCCCN)C(=O)N[C@H](C(=O)N[C@@H](CC(C)C)C(N)=O)[C@@H](C)CC [K10] | 0.05559 | 22.5673 |
| CC[C@H](C)[C@H](N)C(=O)N[C@@H](CC(N)=O)C(=O)N[C@@H](CC(C)C)C(=O)N[C@@H](CCCCN)C(=O)N[C@@H](C)C(=O)N[C@@H](CC(C)C)C(=O)N[C@@H](C)C(=O)N[C@@H](C)C(=O)N[C@@H](CC(C)C)C(=O)N[C@@H](C)C(=O)N[C@@H](CCCCN)C(=O)N[C@@H](CCCCN)C(=O)N[C@@H](CCCCN)C(=O)N[C@@H](CC(C)C)C(N)=O [K13] | 5 | 29.9957 |
| CC[C@H](C)[C@H](N)C(=O)N[C@@H](CC(N)=O)C(=O)N[C@@H](CC(C)C)C(=O)N[C@@H](CCCCN)C(=O)N[C@@H](C)C(=O)N[C@@H](CC(C)C)C(=O)N[C@@H](C)C(=O)N[C@@H](C)C(=O)N[C@@H](CC(C)C)C(=O)N[C@@H](C)C(=O)N[C@@H](CCCCN)C(=O)N[C@@H](CCCCN)C(=O)N[C@H](C(=O)N[C@@H](CCCCN)C(N)=O)[C@@H](C)CC [K14] | 6.4564 | 21.2164 |
| CC[C@H](C)[C@H](NC(=O)[C@H](CCCCN)NC(=O)[C@H](CCCCN)NC(=O)[C@H](C)NC(=O)[C@H](CC(C)C)NC(=O)[C@H](C)NC(=O)[C@H](C)NC(=O)[C@H](CC(C)C)NC(=O)[C@H](C)NC(=O)[C@H](CCCCN)NC(=O)[C@H](CC(C)C)NC(=O)[C@H](CC(N)=O)NC(=O)[C@@H](N)CC(C)C)C(=O)N[C@@H](CC(C)C)C(N)=O [L1] | 20.4049 | 57.5292 |
| CC[C@H](C)[C@H](N)C(=O)N[C@@H](CC(C)C)C(=O)N[C@@H](CC(C)C)C(=O)N[C@@H](CCCCN)C(=O)N[C@@H](C)C(=O)N[C@@H](CC(C)C)C(=O)N[C@@H](C)C(=O)N[C@@H](C)C(=O)N[C@@H](CC(C)C)C(=O)N[C@@H](C)C(=O)N[C@@H](CCCCN)C(=O)N[C@@H](CCCCN)C(=O)N[C@H](C(=O)N[C@@H](CC(C)C)C(N)=O)[C@@H](C)CC [L2] | 76.9101 | 95.7612 |
| CC[C@H](C)[C@H](N)C(=O)N[C@@H](CC(N)=O)C(=O)N[C@@H](CC(C)C)C(=O)N[C@@H](CC(C)C)C(=O)N[C@@H](C)C(=O)N[C@@H](CC(C)C)C(=O)N[C@@H](C)C(=O)N[C@@H](C)C(=O)N[C@@H](CC(C)C)C(=O)N[C@@H](C)C(=O)N[C@@H](CCCCN)C(=O)N[C@@H](CCCCN)C(=O)N[C@H](C(=O)N[C@@H](CC(C)C)C(N)=O)[C@@H](C)CC [L4] | 15.2128 | 34.0791 |
